Patent US5334595A, “Pyrazoloquinolones as anticancer agents” (priority 1992, dated 1994)
Where two headings read alike, the source gives them in different places.

What was measured:
[1] = tested on: P388 murine leukemia cells; assay: In vitro cytotoxicity, one-hour exposure, clonogenic survival of P388 cells; format: cell-based; conditions: Mus musculus, read-out: in vitro cytotoxicity IC50, 1 hr exp.; P388, 1 hr exposure
Experimental: (§1) In vitro cytotoxicity was assayed by determining cell survival following exposure of P388 murine leukemia cells to a range of test compound concentrations. Cytotoxicity was quantitated following either a one-hour exposure or continuous exposure of P388 cells to test compound.
(§2) A Manual of Basic Technique. […] Briefly, following drug exposure cells were plated in soft agar and incubated (37°, 5% CO2) for 7-10 days during which time viable cells form visible colonies. Cytotoxicity following continuous exposure of cells to test compound was assayed by quantitating total P388 cells on a Coultier Counter following a 48-hour co-incubation of test compound with cells. P388 cells were maintained in log phase throughout the duration of cytotoxicity assays.
(§3) The percentage of cells surviving relative to an untreated control was graphed as a function of increasing drug concentration.

[2] = target: T1, human topoisomerase II (Homo sapiens, UniProt P11388); assay: Mammalian topoisomerase II inhibition assay (topo II covalently attached to DNA, relative to mAMSA); format: biochemical; conditions: read-out: topo II inh. EC50
T1 construct: Topo II was purified from late log phase suspension cultures of HeLa WIS; endogenous in cells; host or cells: HeLa WIS
Excerpt: The inhibition of human topoisomerase II (hereafter topo II) was quantitated by a procedure adapted from that described by Trask et al., EMBO J., 3, 671-676 (1984). The assay quantitates the amount of topo II covalently attached to DNA at equilibrium during a topo II reaction. This assay determines the potential of a compound to stabilize this complex, which potential is closely related to the cytotoxicity of the compound.
Topo II was purified from late log phase suspension cultures of HeLa WIS by an adaptation of the method described by Per et al., Mol. Pharmacol., 32, 17-25 (1987).
Assays (in duplicate) were assembled at 4° C. Assay mix (25 μl) was distributed in Beckman (No. 265270) 1.5 mL microtiter tubes followed by the addition of 5 μl test compound to yield the final concentrations of assay components:
The assay mix including the test compound was incubated for 20 minutes at 37° C. The reaction was terminated at 37° C. by the addition of 3 μl 10% SDS followed by the addition of 266 μl 10 mM Tris-Cl pH 7.5, 20 μg/ml BSA, 20 μg/ml calf thymus DNA, 1% SDS.
A SDS/protein precipitate was formed by the addition of 28 μl 2.5M KCl followed by chilling on ice for a minimum of 10 minutes. The precipitate was collected and washed with a Brandell cell harvester on a GFB glass fiber filter membrane as follows. The contents of the assay tube were drawn up into the harvester. The tube was then rinsed 7× with 10 mM Tris-Cl pH 7.5, 1 mM EDTA and 100 mM KCl. The precipitate was washed with 1 L of a solution of 10 mM Tris-Cl pH 7.5, 1 mMEDTA, 100 mM KCl followed by 1 L of 95% ethyl alcohol and finally 0.5 L 70% of ethyl alcohol (per 48 samples in each case). After drying, CPM was determined by liquid scintillation counting with 5 ml Biofluor (NEN Research Products) or Readisafe (Beckman Instruments Inc.) cocktail.
Preparation of test compound--A stock solution (6 mg/ml) of test compound was prepared either in 0.1N sodium hydroxide or 0.2N hydrogen chloride. This solution then was diluted 1/5 into water and serially thereafter in either 0.02N sodium hydroxide or 0.04N hydrogen chloride, respectively. The stock solution and serial dilution of the test compound was stored at -20° C. prior to testing.
Screening of test compound--As an initial screen, the test compound was tested at a final concentration of 2, 20 and 200 μg/ml. The compound was then retested at a range of concentrations (usually 2-3×steps) bridging their approximate EC50 's, as estimated by the prescreen.
Controls--A solvent control which indicates the base level of topo II-DNA complex formed in the absence of the test compound was included in each test. A control, in which topo II was omitted, was included for each test compound at the highest drug concentration tested.
Reference Agent--A dose response curve with mAMSA at 0.01, 0.08, 0.16, 0.32, 1.0 and 10 μg/ml was included in each test.
The maximal DNA-topo II complex formed is taken as that equal to that formed at the nearly saturating dose of mAMSA (10 μg/ml).

[3] = tested on: P388 murine leukemia cells; assay: In vitro cytotoxicity, continuous (48-hour) exposure of P388 cells; format: cell-based; conditions: Mus musculus; P388, continuous exposure (48-hour); read-out: in vitro cytotoxicity IC50, cont. exp.
Experimental: as §1, §2, §3

[4] = In vivo antitumor assay, Panc03(sc); design: species or system mice; conditions: mouse, in vivo, MTD
Excerpt: Mice: Inbred: C3H/He and NCR-nu; and Hybrids: B6D2F1 (C57BL/6 females×DBA/2 males, CD2F1 (Balb/c females×DBS/2 males) and B6C3fl (C57BL/6×C3H) were bred at Wayne State University from strains obtained from the Frederick Cancer Research Facility, Frederick, Maryland or purchased from commercial suppliers.
Tumors: Murine Tumor: P388 and an adriamycin-resistant (ADR) subline P388/ADR leukemia and the following transplantable solid tumors of mice were used for in vivo testing: B16 melanoma (B16), pancreatic ductal adenocarcinoma No. 03 (Pane 03), colon adenocarcinoma No. 38 (colo 38), lung carcinoma No. 12 (LC 12), mammary ductal adenocarcinoma No. 16/C (Mam16C) and an adriamycin-resistant subline Mam16C/ADR. Human tumor: A single human tumor, mammary carcinoma MX-1 was used for in vivo testing. All tumors are in the Developmental Therapeutics Program frozen tumor respository, maintained by the Biological Testing Branch, Frederick Maryland. Each has a detailed description, code identification number, and list of references at the National Tumor Repository. Murine tumors were maintained in the mouse strain of origin and were transplanted in the appropriate F1 hydrid (or the strain of origin) for therapy trials. Human mammary carcinoma MX-1 (MX1) was maintained as a subcutaneous implant in either athymic Swiss (Cr: NIH(S)-nu) or athymic random bred (NCR-nu) mice and transplanted in NCR-nu for therapy trials.
Chemotherapy: For pancreatic ductal adenocarcinoma No. 3, colon adenocarcinoma No. 38 (colo 38), lung carcinoma No. 12 LC 12) and both adriamycin-sensitive (RP) and-resistant (ADR) mammary ductal adenocarcinoma No. 16 (Mam16) tumors, bilateral tumor implants were used to help ensure a more uniform tumor burden per mouse (thus reducing the requirement for greater numbers of mice per group). The animals necessary to begin an experiment were pooled, implanted bilaterally s.c. on day zero with 30-60 mg tumor fragments using a 12-gauge trocar, and again pooled before randomization to the various treatment and control groups. Chemotherapy was started within three days after tumor implantation while the number of cells per mouse was relatively small (1×10^7 -1×10^8 cells).
Quantitative end points used to assess antitumor activity included % Increased Life Span (% ILS), Tumor Cell Kill (Log10 kill), and Tumor Growth Inhibition (T/C). Long Term Survivors (45 or 60 day) were excluded from calculations of %ILS and Tumor Cell Kill.
The log10 cell kill was calculated from the following formula: [formula] where T-C is the tumor difference in the median day of death between the treated (T) and the control (C) groups and Td is the tumor doubling time (in days), the latter estimated from the best fit straight line from a log-linear growth plot of the control-group tumors in exponential growth. The conversion of the T-C values to log10 cell kill is possible because the Td for tumors regrowing post-treatment approximated the Td values of the tumors in untreated control mice.
Tumors were measured with a caliper once or twice weekly (as needed) until either tumors exceeded 1600 mg or cure was assured. Tumor weights were estimated from two-dimensional measurements: Tumor Weight (mg)=(a×b^2) / 2, where a and b are the tumor length and width (ram) respectively. Measurements were carried out simultaneously in both treatment and control groups. When the control group tumors reached approximately 750-1500 mg in size (median of group), the median tumor weight of each group was determined (including zeros). The T/C value in percent is an indication of antitumor effectiveness. The % T/C was calculated from the following formula for solid murine tumor models: [formula] where T and C are median tumor weights of the treatment and control groups, respectively. A T/C equal to or less than 42% is considered significant antitumor activity. […]

[5] = conc. achieving 50% of maximal effect of mAMSA, topo II from HeLa cells

T1 sequence (P11388 whole entry): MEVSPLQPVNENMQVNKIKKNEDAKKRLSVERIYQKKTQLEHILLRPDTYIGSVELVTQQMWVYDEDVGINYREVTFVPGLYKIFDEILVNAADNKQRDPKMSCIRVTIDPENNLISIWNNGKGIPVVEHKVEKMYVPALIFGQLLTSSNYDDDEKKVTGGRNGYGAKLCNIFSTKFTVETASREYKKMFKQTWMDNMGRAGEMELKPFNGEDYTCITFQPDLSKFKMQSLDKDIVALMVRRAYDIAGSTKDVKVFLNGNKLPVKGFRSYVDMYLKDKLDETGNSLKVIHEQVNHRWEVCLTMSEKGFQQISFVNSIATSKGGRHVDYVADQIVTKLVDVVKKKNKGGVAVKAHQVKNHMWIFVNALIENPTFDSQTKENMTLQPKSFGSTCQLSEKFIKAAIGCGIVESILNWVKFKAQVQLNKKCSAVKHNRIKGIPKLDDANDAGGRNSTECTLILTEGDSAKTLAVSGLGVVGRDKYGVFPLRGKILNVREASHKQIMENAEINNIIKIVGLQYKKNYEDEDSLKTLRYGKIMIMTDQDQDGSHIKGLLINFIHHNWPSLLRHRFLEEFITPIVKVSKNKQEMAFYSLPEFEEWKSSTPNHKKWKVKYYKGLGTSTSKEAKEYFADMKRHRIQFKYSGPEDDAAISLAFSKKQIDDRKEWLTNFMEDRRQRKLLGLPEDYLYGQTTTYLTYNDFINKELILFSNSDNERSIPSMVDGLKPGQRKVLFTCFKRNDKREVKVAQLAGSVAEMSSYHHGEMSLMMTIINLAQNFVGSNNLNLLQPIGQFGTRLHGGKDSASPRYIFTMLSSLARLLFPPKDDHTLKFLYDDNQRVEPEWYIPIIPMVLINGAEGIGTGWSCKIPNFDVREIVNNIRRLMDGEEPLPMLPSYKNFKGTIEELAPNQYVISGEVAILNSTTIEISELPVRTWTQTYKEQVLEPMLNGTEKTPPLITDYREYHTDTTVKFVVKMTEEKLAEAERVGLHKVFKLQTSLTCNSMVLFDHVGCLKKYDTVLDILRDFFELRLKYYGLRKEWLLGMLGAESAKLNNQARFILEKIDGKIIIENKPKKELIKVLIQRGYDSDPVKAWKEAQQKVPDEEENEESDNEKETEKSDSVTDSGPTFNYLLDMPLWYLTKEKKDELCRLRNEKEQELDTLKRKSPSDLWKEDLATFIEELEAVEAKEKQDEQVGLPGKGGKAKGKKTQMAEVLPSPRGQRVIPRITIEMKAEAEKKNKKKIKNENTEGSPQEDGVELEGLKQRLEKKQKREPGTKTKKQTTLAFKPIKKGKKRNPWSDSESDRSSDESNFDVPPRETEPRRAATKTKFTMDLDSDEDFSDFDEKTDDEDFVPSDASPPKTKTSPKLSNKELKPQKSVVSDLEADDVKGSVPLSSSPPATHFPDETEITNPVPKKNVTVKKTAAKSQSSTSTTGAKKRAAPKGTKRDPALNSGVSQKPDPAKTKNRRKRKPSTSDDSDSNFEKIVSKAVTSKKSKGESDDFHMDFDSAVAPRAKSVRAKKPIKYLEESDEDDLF

Structure (SMILES) | IC50 [1] [nM] | EC50 [2, 5] [nM] | IC50 [3] [nM] | MTD [4] [mg/kg] | MTD ([4]; iv) [mg/kg] | MTD ([4]; sc) [mg/kg] | EC50 ([2]; footnote c: bell-shaped dose response curve noted, 50% of maximal effect of mAMSA) [nM] | EC50 [2] [nM]
Cc1cc(-c2c(F)cc3c4nn(C5CCCCC5)c(=O)c-4cn(C4CC4)c3c2F)cc(C)n1 [Example 40] | 680 | 900 | 190 |  |  |  |  | 
Cc1cc(-c2c(F)cc3c4nn([C@H]5CC[C@H](N)CC5)c(=O)c-4cn(C4CC4)c3c2F)cc(C)n1 [Example 56b, 2-(trans-4-aminocyclohexyl)-5-cyclopropyl-6,8-difluoro-2,5 dihydro-7-(2,6-dimethyl-4-pyridinyl)-3H-pyrazolo[4,3-c]quinolin-3-one] | 1500 | 4200 |  | 550 |  |  |  | 
Cc1cc(-c2c(F)cc3c4nn(C5CCNCC5)c(=O)c-4cn(C4CC4)c3c2F)cc(C)n1 [Example 49] | 2300 | 5600 | 2500 |  |  |  |  | 
Cc1cc(-c2c(F)cc3c4nn(CC5CCCCC5)c(=O)c-4cn(C4CC4)c3c2F)cc(C)n1 [Example 43] | 6700 | 8200 | 4900 |  |  |  |  | 
Cc1cc(-c2c(F)cc3c4nn(C5CCOCC5)c(=O)c-4cn(C4CC4)c3c2F)cc(C)n1 [Example 46] | 290 | 1700 | 250 |  |  |  |  | 
CCN(CC)CCCn1nc2c3cc(F)c(-c4cc(C)nc(C)c4)c(F)c3n(C3CC3)cc-2c1=O [Example 16] | 490 | 6000 | 1200 |  |  |  |  | 
Cc1cc(-c2c(F)cc3c4nn(CCCCN(C)C)c(=O)c-4cn(C4CC4)c3c2F)cc(C)n1 [Example 54, 5-Cyclopropyl-6,8-difluoro-2,5-dihydro-2-[4-(dimethylamino)-butyl]-7-(2,6-dimethyl-4-pyridinyl) -3H-pyrazolo[4,3-c]quinolin-3-one] | 400 | 15000 | 500 |  |  |  |  | 
Cc1cc(-c2c(F)cc3c4nn(CCN5CCOCC5)c(=O)c-4cn(C4CC4)c3c2F)cc(C)n1 [Example 20] | 2800 | 48000 | 410 |  |  |  |  | 
COc1ccc(-n2nc3c4cc(F)c(-c5cc(C)nc(C)c5)c(F)c4n(C4CC4)cc-3c2=O)cc1 [Example 23] |  |  | 5200 |  | 140 | 1150 | 6800 | 
Cc1cc(-c2c(F)cc3c4n[nH]c(=O)c-4cn(C4CC4)c3c2F)cc(C)n1 [Example 6] | 7900 | 11000 | 3600 |  |  | > 2500 |  | 
Cc1cc(-c2c(F)cc3c4nn(C5CCN(C)CC5)c(=O)c-4cn(C4CC4)c3c2F)cc(C)n1 [Example 50] | 94 | 3200 |  |  | 128 |  |  | 
Cc1cc(-c2c(F)cc3c4nn(-c5ccccc5)c(=O)c-4cn(C4CC4)c3c2F)cc(C)n1 [Example 22] |  | 2700 | 840 |  |  | 635 |  | 
Cc1cc(-c2c(F)cc3c4nn(CCN5CCCC5)c(=O)c-4cn(C4CC4)c3c2F)cc(C)n1 [Example 18] | 300 |  | 35 |  |  |  |  | 650000
Cc1cc(-c2c(F)cc3c4nn(C5CCCCCC5)c(=O)c-4cn(C4CC4)c3c2F)cc(C)n1 [Example 42] | 4200 | 2900 | 1500 |  |  |  |  | 
Cc1cc(-c2c(F)cc3c4nn(CCNC(C)(CO)CO)c(=O)c-4cn(C4CC4)c3c2F)cc(C)n1 [Example 55] | 11000 | 11000 | 25000 |  |  |  |  | 
Cc1cc(-c2c(F)cc3c4nn(C5CCCC5)c(=O)c-4cn(C4CC4)c3c2F)cc(C)n1 [Example 41] | 1100 | 4000 | 380 |  |  |  |  | 
Cc1cc(-c2c(F)cc3c4nn([C@H]5CC[C@@H](NC=O)CC5)c(=O)c-4cn(C4CC4)c3c2F)cc(C)n1 [Example 57, 2-(cis-4-formamidocyclohexyl)-5-cyclopropyl-6,8-difluoro-2,5-dihydro-7-(2,6-dimethyl-4-pyridinyl)-3H-pyrazolo[4,3-c]quinolin-3-one] | 5100 | 800 |  |  |  |  |  | 
Cc1cc(-c2c(F)cc3c4nn(CCC5CCCN5C)c(=O)c-4cn(C4CC4)c3c2F)cc(C)n1 (centres unmarked) [Example 21] | 330 | 3500 | 160 |  | 80 |  |  | 
